Each structure is given as a SMILES string.

By melting point is commonly meant the temperature of the solid-liquid transition.

`Cc1ccc(CC(=O)Nc2ccccc2Cl)c(F)c1Oc1cc(C#N)cc(C(F)F)c1` [Compound I-86, N-(2-Chloro-phenyl)-2-[3-(3-cyano-5-difluoromethyl-phenoxy)-2-fluoro-4-methyl-phenyl]-acetamide] registered a melting point of 163.3 to 164.4 °C.
To `CCc1ccc(CC(=O)Nc2ccc(S(N)(=O)=O)cc2Cl)c(F)c1Oc1cc(C#N)cc(C(F)F)c1` [Compound I-179, N-(2-Chloro-4-sulfamoyl-phenyl)-2-[3-(3-cyano-5-difluoromethyl-phenoxy)-4-ethyl-2-fluoro-phenyl]-acetamide] belongs 239.6 to 240.7 °C; to `COc1ccc(CC(=O)Nc2ccc(S(N)(=O)=O)cc2C)c(F)c1Oc1cc(Cl)cc(C#N)c1` [Compound I-191, 2-[3-(3-Chloro-5-cyano-phenoxy)-2-fluoro-4-methoxy-phenyl]-N-(2-methyl-4-sulfamoyl-phenyl)-acetamide], 239.9 to 240.8 °C.
To `CCC(=O)N(C)S(=O)(=O)c1ccc(NC(=O)Cc2ccc(Cl)c(Oc3cc(Cl)cc(C#N)c3)c2F)c(Cl)c1` [Compound I-162, 2-[4-Chloro-3-(3-chloro-5-cyano-phenoxy)-2-fluoro-phenyl]-N-[2-chloro-4-(methyl-propionyl-sulfamoyl)-phenyl]-acetamide] belongs 198.2 to 200.6 °C.
To `COCC(=O)N(C)S(=O)(=O)c1ccc(NC(=O)Cc2ccc(Cl)c(Oc3cc(Cl)cc(C#N)c3)c2F)c(Cl)c1` [Compound I-171, 2-[4-Chloro-3-(3-chloro-5-cyano-phenoxy)-2-fluoro-phenyl]-N-{2-chloro-4-[(2-methoxy-acetyl)-methyl-sulfamoyl]-phenyl}-acetamide] belongs 183.2 to 185.5 °C; to `N#Cc1cc(Oc2c(Cl)ccc(CC(=O)Nc3ccccc3Cl)c2F)cc(C(F)F)c1` [Compound I-14, 2-[4-Chloro-3-(3-cyano-5-difluoromethyl-phenoxy)-2-fluoro-phenyl]-N-(2-chloro-phenyl)-acetamide], 169.5 to 171 °C; to `Cc1cc(NS(C)(=O)=O)ccc1NC(=O)Cc1ccc(C)c(Oc2cc(Cl)cc(C#N)c2)c1` [Compound I-237, 2-[3-(3-Chloro-5-cyano-phenoxy)-4-methyl-phenyl]-N-(4-methanesulfonylamino-2-methyl-phenyl)-acetamide], 180 to 181.4 °C.
Compound `NS(=O)(=O)c1ccc(NC(=O)Cc2ccc(Cl)c(C(=O)c3cc(Cl)ccc3Cl)c2)cc1` [Compound I-250, 2-[4-Chloro-3-(2,5-dichloro-benzoyl)-phenyl]-N-(4-sulfamoyl-phenyl)-acetamide] gave a melting point of 213.9 to 216.1 °C.
As for `Cc1ccc(CC(=O)Nc2ccc(C(=O)O)cc2Cl)c(F)c1Oc1cc(C#N)cc(C(F)F)c1` [Compound I-110, 3-Chloro-4-{2-[3-(3-cyano-5-difluoromethyl-phenoxy)-2-fluoro-4-methyl-phenyl]-acetylamino}-benzoic acid], the figure is 216.9 to 218.3 °C; as for `Cc1cc(N2CCCS2(=O)=O)ccc1NC(=O)Cc1ccc(C)c(Oc2cc(Cl)cc(C#N)c2)c1` [Compound I-170, 2-[3-(3-Chloro-5-cyano-phenoxy)-4-methyl-phenyl]-N-[4-(1,1-dioxo-1λ^6-isothiazolidin-2-yl)-2-methyl-phenyl]-acetamide], 182.5 to 184.6 °C.
Compound `Cc1ccc(CC(=O)Nc2ccc(S(N)(=O)=O)cc2Cl)cc1Oc1cc(Cl)cc(C#N)c1` [Compound I-123, 2-[3-(3-Chloro-5-cyano-phenoxy)-4-methyl-phenyl]-N-(2-chloro-4-sulfamoyl-phenyl)-acetamide] displayed a melting point of 194 to 194.9 °C.
To `Cc1ccc(CC(=O)Nc2ccccc2Cl)cc1Oc1cc(Cl)ccc1Br` [Compound I-33, 2-[3-(2-Bromo-5-chloro-phenoxy)-4-methyl-phenyl]-N-(2-chloro-phenyl)-acetamide] belongs 133.9 to 135.9 °C; to `CC(C)c1ccc(CC(=O)Nc2ccccc2Cl)cc1Oc1cc(Cl)ccc1Br` [Compound I-27, 2-[3-(2-Bromo-5-chloro-phenoxy)-4-isopropyl-phenyl]-N-(2-chloro-phenyl)-acetamide], 142.9 to 143.6 °C; to `Cc1cc(C#N)cc(C)c1Oc1cc(CC(=O)Nc2ccccc2Cl)ccc1Cl` [Compound I-68, 2-[4-Chloro-3-(4-cyano-2,6-dimethyl-phenoxy)-phenyl]-N-(2-chloro-phenyl)-acetamide], 183.9 to 185.1 °C.
On to `CNS(=O)(=O)c1ccc(NC(=O)Cc2ccc(Cl)c(Oc3cc(Cl)cc(C#N)c3)c2F)c(Cl)c1` [Compound I-168, 2-[4-Chloro-3-(3-chloro-5-cyano-phenoxy)-2-fluoro-phenyl]-N-(2-chloro-4-methylsulfamoyl-phenyl)-acetamide], for which the melting point lay within 199.1 to 200 °C.
Regarding `N#Cc1cc(C#N)cc(Sc2cc(CC(=O)Nc3ccc(S(N)(=O)=O)cc3)ccc2Cl)c1` [Compound I-242, 2-[4-Chloro-3-(3,5-dicyano-phenylsulfanyl)-phenyl]-N-(4-sulfamoyl-phenyl)-acetamide], the melting point is 247.9 to 250.9 °C.
As to `COc1ccc(CC(=O)Nc2ccccc2Cl)cc1Oc1cc(C#N)ccc1Cl` [Compound I-62, 2-[3-(2-Chloro-5-cyano-phenoxy)-4-methoxy-phenyl]-N-(2-chloro-phenyl)-acetamide], the melting point lay within 194 to 197.8 °C.
As for `CCc1ccc(CC(=O)Nc2ccc(S(N)(=O)=O)cc2)cc1Oc1cc(Cl)ccc1C#N` [Compound I-17, 2-[3-(5-Chloro-2-cyano-phenoxy)-4-ethyl-phenyl]-N-(4-sulfamoyl-phenyl)-acetamide], the melting point lay within 198.1 to 202.6 °C.
As for `COc1cc(CC(=O)Nc2ccc(S(N)(=O)=O)cc2)cc(Oc2cc(Cl)cc(C#N)c2)c1` [Compound I-132, 2-[3-(3-Chloro-5-cyano-phenoxy)-5-methoxy-phenyl]-N-(4-sulfamoyl-phenyl)-acetamide], the figure is 184.1 to 185.5 °C; as for `O=C(Cc1cc2c(c(C(=O)c3ccc(Cl)cc3)c1)OCC2)Nc1ccccc1Cl` [Compound I-240, 2-[7-(4-Chloro-benzoyl)-2,3-dihydro-benzofuran-5-yl]-N-(2-chloro-phenyl)-acetamide], 141.1 to 144.9 °C.
Compound `Cc1ccc(CC(=O)Nc2ccc(S(N)(=O)=O)cc2Cl)c(F)c1Oc1cc(Cl)cc(C#N)c1` [Compound I-83, 2-[3-(3-Chloro-5-cyano-phenoxy)-2-fluoro-4-methyl-phenyl]-N-(2-chloro-4-sulfamoyl-phenyl)-acetamide] registered a melting point of 228.9 to 230.6 °C.
The compound `COc1ccc(CC(=O)Nc2ccc(S(N)(=O)=O)cc2)cc1Oc1cc(C#N)ccc1Cl` [Compound I-65, 2-[3-(2-Chloro-5-cyano-phenoxy)-4-methoxy-phenyl]-N-(4-sulfamoyl-phenyl)-acetamide] showed a melting point of 252.3 to 254.3 °C.
`Cc1ccc(CC(=O)Nc2ncccc2C)cc1Oc1cc(Cl)cc(C#N)c1` [Compound I-225, 2-[3-(3-Chloro-5-cyano-phenoxy)-4-methyl-phenyl]-N-(3-methyl-pyridin-2-yl)-acetamide] showed a melting point of 137.9 to 138.8 °C.

The values above are taken from US8329755B2, “Methods for treating retroviral infections” (Roche Palo Alto LLC, priority 2004, dated 2012).
